In ChEMBL document CHEMBL1201862, “PubChem BioAssay data set” (2004):
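Cultured in 96-well plates, cells were exposed to test compound for 48 hours across five concentrations. GI50 is the concentration that inhibits growth by half.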 Activity calls are given as the source filed them. Cut-off read from the data, not from the text of the source: active = GI50 up to about 1.1 µM and inactive = higher.

Tests used:
Assay in all cases: NCI-60 cell line screen, 48 h
[1] = test system: U-251
[2] = test system: ACHN
[3] = test system: T47D
[4] = test system: SW-620
[5] = test system: KM12
[6] = test system: DU-145
[7] = test system: SNB-19
[8] = test system: HOP-62
[9] = test system: RPMI-8226
[10] = test system: Malme-3M
[11] = test system: CAKI-1
[12] = test system: HL-60
[13] = test system: SNB-75
[14] = test system: 786-0
[15] = test system: HCT-15
[16] = test system: NCI-H226
[17] = test system: K562
[18] = test system: SK-OV-3
[19] = test system: CCRF-CEM
[20] = test system: A549
[21] = test system: HCT-116
[22] = test system: SK-MEL-2
[23] = test system: SF-295
[24] = test system: UO-31
[25] = test system: NCI-H460
[26] = test system: OVCAR-5
[27] = test system: HOP-92
[28] = test system: NCI-H23
[29] = test system: OVCAR-4
[30] = test system: NCI/ADR-RES
[31] = test system: IGROV-1
[32] = test system: UACC-257
[33] = test system: NCI-H522
[34] = test system: SF-539
[35] = test system: MDA-N
[36] = test system: BT-549
[37] = test system: M14
[38] = test system: OVCAR-3
[39] = test system: Hs-578T
[40] = test system: HCC 2998
[41] = test system: LOX IMVI
[42] = test system: COLO 205
[43] = test system: UACC-62
[44] = test system: SR
[45] = test system: EKVX
[46] = test system: RXF 393
[47] = test system: A498
[48] = test system: MDA-MB-435
[49] = test system: SK-MEL-28
[50] = test system: SN12C
[51] = test system: TK-10
[52] = test system: PC-3
[53] = test system: OVCAR-8
[54] = test system: SK-MEL-5
[55] = test system: SF-268
[56] = test system: MDA-MB-231
[57] = test system: MOLT-4
[58] = test system: HT-29
[59] = test system: MCF7

In the case of `CN(C)CCCC1c2ccccc2Oc2ccc(C(F)(F)F)cc21` (centres undefined), the GI50 [1] is reported as 11.4 µM (inactive), the GI50 [2] is reported as 16.7 µM (inactive) and the GI50 [3] is reported as 14.6 µM (inactive). For the same compound, the GI50 [4] was 15.4 µM (inactive), the GI50 [5] was 14.2 µM (inactive) and the GI50 [6] was 17.2 µM (inactive). For the same compound, the GI50 [7] was 16.7 µM (inactive), the GI50 [8] was 16.5 µM (inactive) and the GI50 [9] was 8.2 µM (inactive). For the same compound, the GI50 [10] was 2.79 µM (inactive), the GI50 [11] was 12.9 µM (inactive) and the GI50 [12] was 12.1 µM (inactive). The GI50 [13] was 14.3 µM (inactive), the GI50 [14] was 12.4 µM (inactive) and the GI50 [15] was 16.1 µM. For the same compound, the GI50 [16] was 8.2 µM (inactive), the GI50 [17] was 5.9 µM (inactive) and the GI50 [18] was 16.8 µM (inactive). For the same compound, the GI50 [19] was 9.42 µM (inactive), the GI50 [20] was 14.9 µM (inactive) and the GI50 [21] was 11.7 µM (inactive). The GI50 [22] was 14.6 µM (inactive), the GI50 [23] was 16.5 µM (inactive) and the GI50 [24] was 1.82 µM (inactive). The GI50 [25] was 15 µM (inactive), the GI50 [26] was 14.9 µM (inactive) and the GI50 [27] was 11.9 µM (inactive). For the same compound, the GI50 [28] was 16 µM (inactive), the GI50 [29] was 14.5 µM (inactive) and the GI50 [30] was 13.7 µM (inactive). The GI50 [31] was 14 µM (inactive), the GI50 [32] was 11.6 µM (inactive) and the GI50 [33] was 14.3 µM (inactive). The GI50 [34] was 13.3 µM (inactive), the GI50 [35] was 4.02 µM (inactive) and the GI50 [36] was 14.2 µM (inactive). For the same compound, the GI50 [37] was 5.75 µM (inactive), the GI50 [38] was 15.3 µM (inactive) and the GI50 [39] was 14.5 µM (inactive). The GI50 [40] was 1.63 µM (inactive), the GI50 [41] was 15.6 µM (inactive) and the GI50 [42] was 4.65 µM (inactive). For the same compound, the GI50 [43] was 9.42 µM (inactive), the GI50 [44] was 7.28 µM (inactive) and the GI50 [45] was 15.9 µM (inactive). For the same compound, the GI50 [46] was 7.19 µM (inactive), the GI50 [47] was 10.8 µM (inactive) and the GI50 [48] was 6.64 µM (inactive). The GI50 [49] was 6.46 µM (inactive), the GI50 [50] was 13.5 µM (inactive) and the GI50 [51] was 15.6 µM (inactive). For the same compound, the GI50 [52] was 13.7 µM (inactive), the GI50 [53] was 16.8 µM (inactive) and the GI50 [54] was 7.45 µM (inactive). For the same compound, the GI50 [55] was 14.3 µM (inactive), the GI50 [56] was 12.8 µM (inactive) and the GI50 [57] was 6.64 µM (inactive). For the same compound, the GI50 [58] was 5.28 µM (inactive) and the GI50 [59] was 12.7 µM (inactive).
